Patent publication US6384049B1, “Cancer treatment” (The Procter & Gamble Company, priority 2000, dated 2002)

Tested on: HT29, a colon cancer tumor line
Experiment: HT29 colon cancer tumor in nude mouse, average tumor weight
Format: in vivo
Description: Imidazo [4,5-b]pyridine-2-carbamic acid, methyl ester was used to treat HT29, a colon cancer tumor line, in nude mouse. The average tumor weight is reported in mg. The control was the vehicle given twice a week. The imidazo [4,5-b]pyridine-2-carbamic acid, methyl ester was also given on this same schedule. Both compounds were administered by oral gavage.

COC(=O)Nc1nc2ncccc2[nH]1 [pyridinyl, imidazo [4,5-b]pyridine-2-carbamic acid, methyl ester]
Average Tumor Weight on Day 1 (1000 mg/kg p.o. twice a week): 75.4 mg
Average Tumor Weight on Day 5 (1000 mg/kg p.o. twice a week): 97.2 mg
Average Tumor Weight on Day 8 (1000 mg/kg p.o. twice a week): 138.2 mg
Average Tumor Weight on Day 11 (1000 mg/kg p.o. twice a week): 172.1 mg
Average Tumor Weight on Day 15 (1000 mg/kg p.o. twice a week): 220.1 mg
Average Tumor Weight on Day 18 (1000 mg/kg p.o. twice a week): 281.6 mg
Average Tumor Weight on Day 23 (1000 mg/kg p.o. twice a week): 340.6 mg
Average Tumor Weight on Day 26 (1000 mg/kg p.o. twice a week): 407.6 mg
Average Tumor Weight on Day 30 (1000 mg/kg p.o. twice a week): 515.6 mg
Average Tumor Weight on Day 33 (1000 mg/kg p.o. twice a week, day 33): 562 mg
Average Tumor Weight on Day 37 (1000 mg/kg p.o. twice a week, day 37): 828.3 mg
Average Tumor Weight on Day 40 (1000 mg/kg p.o. twice a week, day 40): 533.7 mg
Average Tumor Weight on Day 44 (1000 mg/kg p.o. twice a week, day 44): 714.4 mg
Average Tumor Weight on Day 47 (1000 mg/kg p.o. twice a week, day 47): 656.8 mg
Average Tumor Weight on Day 51 (1000 mg/kg p.o. twice a week, day 51): 763.6 mg
Average Tumor Weight on Day 54 (1000 mg/kg p.o. twice a week, day 54): 793.3 mg
Average Tumor Weight on Day 58 (1000 mg/kg p.o. twice a week, day 58): 919 mg
Average Tumor Weight on Day 1 (2500 mg/kg p.o. twice a week): 76.2 mg
Average Tumor Weight on Day 5 (2500 mg/kg p.o. twice a week): 62.6 mg
Average Tumor Weight on Day 8 (2500 mg/kg p.o. twice a week): 115.2 mg
Average Tumor Weight on Day 11 (2500 mg/kg p.o. twice a week): 101.1 mg
Average Tumor Weight on Day 15 (2500 mg/kg p.o. twice a week): 196 mg
Average Tumor Weight on Day 18 (2500 mg/kg p.o. twice a week): 126 mg
Average Tumor Weight on Day 23 (2500 mg/kg p.o. twice a week): 256 mg
Average Tumor Weight on Day 26 (2500 mg/kg p.o. twice a week): 171.5 mg
Average Tumor Weight on Day 1 (1500 m/kg p.o. twice a week): 76.6 mg
Average Tumor Weight on Day 5 (1500 m/kg p.o. twice a week): 76.1 mg
Average Tumor Weight on Day 8 (1500 m/kg p.o. twice a week): 94.4 mg
Average Tumor Weight on Day 11 (1500 m/kg p.o. twice a week): 130 mg
Average Tumor Weight on Day 15 (1500 m/kg p.o. twice a week): 166.3 mg
Average Tumor Weight on Day 18 (1500 m/kg p.o. twice a week): 189.3 mg
Average Tumor Weight on Day 23 (1500 m/kg p.o. twice a week): 242.3 mg
Average Tumor Weight on Day 26 (1500 m/kg p.o. twice a week): 264 mg
Average Tumor Weight on Day 30 (1500 m/kg p.o. twice a week): 405 mg
